Experimental findings from US11958831B2, “Pyrazole compounds, pharmaceutical compositions thereof and use thereof” (ARTIVILA (SHENZHEN) INNOVATION CENTER, LTD., priority 2018, dated 2024) are described below.

The structures appear in SMILES notation.

In assay [1] the test system is TNFα secretion in THP-1 cells. Description: Cellular activity assay: LPS-stimulated TNFα secretion in THP-1 cells (ELISA). The format is cell-based. Conditions: Homo sapiens, LPS 1 μg/mL, 4.5 h, read-out: IC50 inhibiting TNFα secretion in THP-1 cells stimulated by LPS. As for the experimental part: Inhibition of IRAK4 by the compounds of the present application was evaluated in THP-1 cells for cellular activity. The stimulus used in this experiment was LPS. LPS is a TLR4 agonist that stimulates the secretion of TNFα through TLR-IRAK4 signaling pathway in the THP-1 cells. Once the signaling pathway is inhibited by IRAK4 inhibitors, the production of TNFα is inhibited. In this experiment, the secretion of TNFα was detected by ELISA.
150 μL of RPMI-1640 medium (Gibco, catalog No.: 11875-085) solution containing 10000 THP-1 cells were added to each well of a 96-well plate and then 25 μL of a test compound solution of 8 times the final concentration (starting from […], 3-fold dilution, 8 concentrations, each concentration containing 4% DMSO RPMI-1640 medium) were added, and they were mixed uniformly and incubated at 37° C. for 30 min. 25 μL of RPMI-1640 medium solution containing LPS were added to each well (the final LPS concentration was 1 μg/mL and the final DMSO concentration was 0.5%), mixed uniformaly, and incubated at 37° C. for 4.5 h. The 96-well plate was rotated at 2000 rpm for 5 min, then 50 μL of supernatant was taken, and the TNFα content in the supernatant was determined with a human ELISA kit (Life Technologies, catalog No.: KHC3011). The IC50 (Table 2) of the compound was calculated by XL-Fit.
(In general: In an ELISA, binding on a coated surface is turned into a signal by an enzyme label.)

For a further assay, the target named is IRAK4 kinase (Homo sapiens (Human), UniProt Q9NWZ3). The assay can be described thus: IRAK4 kinase activity assay (mobility shift, Km ATP). The format is biochemical. To be noted: Km ATP (15.6 μM ATP), 1 nM IRAK4, 60 min room temperature. On the procedure:
Inhibitory activity (IC50) of the compounds against IRAK4 kinase under Km ATP was detected through mobility spectrum analysis (MSA). IRAK4 kinase was purchased from Carna (Cat. No.: 09-145, batch No.: 14CBS-0020H), and Kinase Substrate 8 was purchased from GL Biochem (Cat. No.: 112396, batch No.: P171207-MJI112396).
The compounds were prepared with DMSO to 100 times the final reaction concentration and diluted to 10 concentrations in sequence at a 3-fold dilution ratio starting from 1 μM. Then 0.25 μL was transferred to a 384-well plate using Echo550. A 1× kinase buffer (50 mM HEPES, pH=7.5, 0.0015% Brij-35, 10 mM MgCl2, 2 mM DTT) was used to prepare a kinase solution of 2.5 times the final concentration. Then 10 μL of the kinase solution of 2.5 times the final concentration was added to each compound well, shaken and mixed uniformly, and incubated at room temperature for 10 min. A 1× kinase buffer was used to prepare a mixed solution of ATP and substrate Kinase Substrate 8 with a concentration of 25/15 times the final concentration. 15 μL of the mixed solution of ATP and the substrate with a concentration of 25/15 times the final concentration were added to each well (the final concentration of IRAK4 kinase was 1 nM, the final concentration of the substrate was 3 μM, and the final concentration of ATP was 15.6 μM), shaken and mixed uniformly, and reacted at room temperature for 60 min. Finally, 30 μL of stopping solution (100 mM HEPES, pH=7.5, 0.0015% Brij-35, 0.2% Coating Reagent #3, 50 mM EDTA) was added to terminate the reaction. CaliperEZ Reader II was used to read data about conversion rates that was then converted into data about inhibition rates. According to the data about the inhibition rate at each concentration, the half maximal inhibitory concentration (IC50) (Table 1) was calculated by a Logit method.

Sequence of IRAK4 kinase (Q9NWZ3 whole entry): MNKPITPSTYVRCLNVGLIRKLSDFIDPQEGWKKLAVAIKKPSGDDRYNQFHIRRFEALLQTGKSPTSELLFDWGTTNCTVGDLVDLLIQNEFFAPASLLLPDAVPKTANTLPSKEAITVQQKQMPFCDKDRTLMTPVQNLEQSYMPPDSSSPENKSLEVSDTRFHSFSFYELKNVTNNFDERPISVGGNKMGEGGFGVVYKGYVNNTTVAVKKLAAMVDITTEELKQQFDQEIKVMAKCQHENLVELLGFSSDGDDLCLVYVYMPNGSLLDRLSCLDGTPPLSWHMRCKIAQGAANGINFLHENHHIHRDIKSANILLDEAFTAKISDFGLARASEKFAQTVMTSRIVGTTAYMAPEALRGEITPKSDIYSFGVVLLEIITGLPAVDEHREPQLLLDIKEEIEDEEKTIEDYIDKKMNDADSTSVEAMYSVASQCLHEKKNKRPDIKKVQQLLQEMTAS

Regarding `CC(C)(O)C(=O)N1CCC(N2CC(n3cc(NC(=O)c4cccc(-c5cc[nH]n5)n4)c(C(F)F)n3)C2)CC1` [Example 41, N-(3-(difluoromethyl)-1-(1-(1-(2-hydroxy-2-methylpropionyl)piperidin-4-yl)azetidin-3-yl)-1H-pyrazol-4-yl)-6-(1H-pyrazol-3-yl)-2-picolinamide], the IC50 (as a rule, the concentration at which inhibition is half-maximal) in assay [1] stood at 23 nM; at IRAK4 kinase, 0.43 nM.

On to `CC(C)(C#N)n1cc(-c2cccc(C(=O)Nc3cn(C4CN(C5CCN(C(=O)CO)CC5)C4)nc3C(F)F)n2)cn1` [Example 43, 6-(1-(2-Cyanopropan-2-yl)-1H-pyrazol-4-yl)-N-(3-(difluoromethyl)-1-(1-(1-(2-hydroxyacetyl)piperidin-4-yl)azetidin-3-yl)-1H-pyrazol-4-yl)-2-picolinamide], for which the IC50 in assay [1] was 42 nM; at IRAK4 kinase it was 0.97 nM.
